For orientation: inhibition means the drop in the measured response relative to a control, in per cent.

We go through 15 compounds from patent US5418239A, “Tricyclic heterocyclic compounds, their production and use” (Takeda Chemical Industries, Ltd., priority 1990, dated 1995).

One assay relates to plasma cholesterol. The assay is described as follows: Plasma cholesterol lowering activity in cholesterol-fed rats. The note with it: 1% cholesterol diet containing 0.0003% test compound, 7 days; ingested about 0.23-0.24 mg/kg/day; mean ± S.D.; * p < 0.05 (t-test) against control group (181.8 ± 60.4). The format is in vivo, Male Sprague-Dawley rats. As for the experimental part: Male Sprague-Dawley rats aged 7 weeks were divided into groups based on body weight and put on a 1% cholesterol diet (the rat diet supplemented with 0.5% cholic acid and 5% olive oil) containing 0.0003% of the test compound for 7 days. The blood was sampled from surfeited rats between 8:30 and 10:00 a.m. and the plasma cholesterol concentration was enzymatically determined. The amount of the compound ingested was calculated from the food consumption.

For assay [1], the target named is T1, Acyl-CoA:cholesterol transferase (ACAT) (Rattus norvegicus, UniProt Q7TQM4).
T1 construct: small intestinal mucosal microsome fraction of a 6-week-old male sprague-Dawley rat; from tissue; host or cells: small intestinal mucosal microsome fraction, 6-week-old male Sprague-Dawley rat
T1 sequence (Q7TQM4 1-524): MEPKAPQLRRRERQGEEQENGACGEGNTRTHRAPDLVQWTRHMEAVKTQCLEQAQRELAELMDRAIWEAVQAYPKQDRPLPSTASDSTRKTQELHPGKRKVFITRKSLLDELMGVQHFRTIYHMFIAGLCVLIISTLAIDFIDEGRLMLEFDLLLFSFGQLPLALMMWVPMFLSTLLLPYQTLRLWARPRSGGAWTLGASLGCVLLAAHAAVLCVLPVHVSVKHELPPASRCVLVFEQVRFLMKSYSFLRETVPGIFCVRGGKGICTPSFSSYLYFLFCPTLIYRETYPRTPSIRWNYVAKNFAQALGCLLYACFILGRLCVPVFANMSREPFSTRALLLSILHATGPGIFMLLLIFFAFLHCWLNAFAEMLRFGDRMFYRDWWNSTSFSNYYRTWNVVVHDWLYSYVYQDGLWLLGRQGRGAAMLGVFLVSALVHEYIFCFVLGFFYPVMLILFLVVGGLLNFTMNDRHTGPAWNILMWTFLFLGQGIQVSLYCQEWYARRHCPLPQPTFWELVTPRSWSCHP
The experiment in a line: Acyl-CoA:cholesterol transferase (ACAT) inhibitory activity (labeled cholesterol ester production, small intestinal mucosal microsome fraction). The assay is classed as biochemical, male sprague-Dawley rat. The note with it: rat small intestinal mucosal microsomes; for inhibition at 1 µM: 10^-6 M test compound, read-out: ACAT inhibition rate (%) (labeled cholesterol ester production inhibiting rate); for IC50: plotted at a plurality of concentration levels, read-out: IC50 (50% inhibitory concentration, ACAT). As for the experimental part: Samples of ACAT enzyme were prepared from the small intestinal mucosal microsome fraction of a 6-week-old male sprague-Dawley rat fasted for 20 hours in accordance with the procedure described by Heider et al, Journal of Lipid Research 24, 1127 (1982).
ACAT activity was determined in accordance with the method of Helgerud et al., Journal of Lipid Research 22, 271 (1981), by measuring the amount of labeled cholesterol ester produced from [1-^14 C]oloyl-CoA and endogenous cholesterol.
The 50% inhibitory concentration (IC50) determined by plotting at a plurality of concentration levels is also shown.

In turn, `O=C(Nc1ccc(F)cc1F)Nc1cnc2cc3c(cc2c1-c1ccccc1Cl)CCC3` [Example 1, N-[4-(2-chlorophenyl)-7,8-dihydro-6H-cyclopenta[g]quinolin-3-yl]-N'-(2,4-difluorophenyl)urea] yielded a Plasma cholesterol in the assay with plasma cholesterol of 80.8 ± 18.6 mg/dL. In assay [1], the inhibition at 1 µM worked out at 99.3% and the IC50 is 3.8 nM.

On to `Cc1ccccc1-c1c(NC(=O)Nc2ccc(F)cc2F)cnc2cc3c(cc12)CCC3` [Example 2, N-[7,8-Dihydro-4-(2-methylphenyl)-6H-cyclopenta[g]-quinolin-3-yl]-N'-(2,4-difluorophenyl)urea], for which the Plasma cholesterol in the assay on plasma cholesterol is 78.5 ± 10.2 mg/dL. Also, in assay [1], the inhibition at 1 µM came to 99.2% and the IC50 worked out at 3.9 nM.

Take `Cc1ccccc1-c1c(NC(=O)Nc2ccc(F)cc2F)c(=O)oc2cc3c(cc12)CCC3` [Example 3, N-(2,4-difluorophenyl)-N'-[4-(2-methylphenyl)-2-oxo-2,6,7,8-tetrahydrocyclopenta[g][1]-benzopyran-3-yl]urea]: the Plasma cholesterol with plasma cholesterol stood at 78.1 ± 12.6 mg/dL. Further, in assay [1], the inhibition at 1 µM is 99.5%.

`O=C(Cc1ccc(F)cc1F)Nc1cnc2cc3c(cc2c1-c1ccccc1Cl)CCC3` [Example 4, 4-(2-chlorophenyl)-3-(2,4-difluorophenylacetylamino)-7,8-dihydro-6H-cyclopenta(g)quinoline]: the inhibition at 1 µM in assay [1] was found to be 91.5%.

Regarding `CC(C)(C)c1cc(-c2c(NC(=O)Nc3ccc(F)cc3F)c(=O)oc3cc4c(cc23)CCC4)cc(C(C)(C)C)c1O` [Example 8, N-[4-(3,5-di-tert-butyl-4-hydroxyphenyl)-2-oxo-2,6,7,8-tetrahydrocyclopenta[g] [1]benzopyran-3-yl]-N'-(2,4-difluorophenyl]urea], in assay [1], the inhibition at 1 µM was 99%.

Take `Cc1ccccc1-c1c(NC(=O)Nc2ccc(N(C)C)cc2)c(=O)oc2cc3c(cc12)CCC3` [Example 9, N-(4-dimethylaminophenyl)-N'-[4-(2-methylphenyl)-2-oxo-2,6,7,8-tetrahydrocyclopenta[g] [1]benzo-pyran-3-yl]urea]: the inhibition at 1 µM in assay [1] turned out to be 94.6%.

Regarding `Cc1ccccc1-c1c(NC(=O)Nc2ccc(F)cc2F)c(=O)oc2cc3c(cc12)CCCC3` [Example 10, N-(2,4-difluorophenyl)-N'-[4-(2-methylphenyl)-6,7,8,9-tetrahydro-2-oxo-2H-naphtho[2,3-b]pyran-3-yl]urea], in assay [1], the inhibition at 1 µM amounted to 98.7%.

For the compound `COc1nc2cc3c(cc2c(-c2ccccc2Cl)c1NC(=O)Nc1cc(C)c(OC(C)=O)c(C)c1)CCC3` [Example 11, N-(4-acetoxy-3,5-dimethylphenyl)-N'-[4-(2-chlorophenyl)-7,8-dihydro-2-methoxy-6H-cyclopenta[g]-quinolin-3-yl]urea], the inhibition at 1 µM in assay [1] came to 75.6%.

In the case of `CC(=O)Oc1c(C)cc(NC(=O)Nc2c(-c3ccccc3C)c3cc4c(cc3n(C)c2=O)CCC4)cc1C` [Example 12, N-(4-acetoxy-3,5-dimethylphenyl)-N'-[1-methyl-4-(2-methylphenyl)-2-oxo-l,2,7,8-tetrahydro-6H-cyclopenta[g]quinolin-3-yl]urea], the inhibition at 1 µM in assay [1] worked out at 91.1%.

Regarding `COc1ccc(C=CC(=O)Nc2c(-c3ccccc3C)c3cc4c(cc3oc2=O)CCC4)cc1OC` [Example 13, 3-(3,4-dimethoxycinnamoylamino) -4-(2-methylphenyl)-7,8-dihydrocyclopenta[g] 1benzopyran-2(6H)-one], the inhibition at 1 µM in assay [1] worked out at 89.9%.

With `Cc1ccccc1-c1c(NC(=O)Cc2cc(C(C)(C)C)c(O)c(C(C)(C)C)c2)c(=O)oc2cc3c(cc12)CCC3` [Example 15, 3-(3,5-di-tert-butyl-4-hydroxyphenylacetylamino) -4-(2-methylphenyl)-7,8-dihydrocyclopenta-[g] [1]benzopyran-2(6H)-one], the inhibition at 1 µM in assay [1] was 89.6%.

As for `COc1cc(NC(=O)Nc2c(-c3ccccc3C)c3cc4c(cc3oc2=O)CCC4)cc(OC)c1O` [Example 16, N-(4-hydroxy-3,5-dimethoxyphenyl)-N'-[4-(2-methylphenyl)-2-oxo-2,6,7,8-tetrahydrocyclopenta [g] [1]benzopyran-3-yl]urea], the inhibition at 1 µM in assay [1] was determined as 94.4%.

Consider `Cc1ccccc1-c1c(NC(=O)Nc2cc(C)c(O)c(C)c2)c(=O)oc2cc3c(cc12)CCC3` [Example 17, N-(4-hydroxy-3,5-dimethylphenyl)-N'-[4-(2-methylphenyl)-2-oxo-2,6,7,8-tetrahydrocyclopenta-[g] [1]benzopyran-3-yl]urea], for which the inhibition at 1 µM in assay [1] came to 97.6%.

As to `Cc1ccccc1-c1c(NC(=O)C=Cc2ccc(O)c(O)c2)c(=O)oc2cc3c(cc12)CCC3` [Example 18, 3-(3,4-dihydroxycinnamoylamino)-4-(2-methylphenyl)-7,8-dihydrocyclopenta [g] [1]benzopyran-2(6H)-one], the inhibition at 1 µM in assay [1] came out at 86.9%.

`Cc1ccccc1-c1c(NC(=O)Nc2ccc(F)cc2F)c(=O)n(C)c2cc3c(cc12)CCC3` [Example 19, N-(2,4-difluorophenyl)-N'-[1-methyl-4-(2-methylphenyl)-2-oxo-l,2,7,8-tetrahydro-6H-cyclopenta-[g]quinolin-3-yl]urea]: the inhibition at 1 µM in assay [1] turned out to be 98.2%.
